The record followed here is patent publication US5567711A, “Indole-3-carbonyl and indole-3-sulfonyl derivatives as platelet activating factor antagonists” (Abbott Laboratories, priority 1995, dated 1996).

Where a name gives a salt, the structure may show the parent alone.

In one assay the target is PAF receptor (Oryctolagus cuniculus, UniProt G1TEI7). Nature of the assay: PAF receptor binding assay: inhibition of specific [^3 H]C18 -PAF binding to rabbit platelet membranes.
Sequence of PAF receptor (G1TEI7 1-342): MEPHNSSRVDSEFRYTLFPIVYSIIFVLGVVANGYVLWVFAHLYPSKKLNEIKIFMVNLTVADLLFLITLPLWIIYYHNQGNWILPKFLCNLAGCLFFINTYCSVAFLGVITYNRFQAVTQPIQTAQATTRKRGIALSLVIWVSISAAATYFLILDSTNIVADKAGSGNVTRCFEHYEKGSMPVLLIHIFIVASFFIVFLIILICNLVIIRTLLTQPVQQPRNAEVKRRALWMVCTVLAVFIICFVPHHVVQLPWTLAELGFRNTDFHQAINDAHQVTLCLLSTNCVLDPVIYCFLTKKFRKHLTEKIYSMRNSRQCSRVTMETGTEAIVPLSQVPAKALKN
Details: not given
The Ki is the dissociation constant of the complex between target and ligand, obtained from inhibition or displacement. The compound `CCOCCn1cc(C(=O)N2CCC(Cn3c(C)nc4cnccc43)CC2)c2ccc(-c3ccc(F)cc3)cc21` [Example 8, 1-(2-ethoxyethyl)-6-(4-fluorophenyl)-3-{[4-(1H-2-methylimidazo[4,5-c]pyrid-1-yl)methylpiperidin-1-yl]carbonyl}indole hydrochloride] returned an inhibition constant Ki of 1.2 nM. Still for that read-out and setting: then `CCOCCn1cc(C(=O)CN2CCC(n3c(C)nc4cnccc43)CC2)c2c(C(=O)OC)cccc21` [Example 23], with 5.2 nM; and `CCOCCn1cc(C(=O)CN2CCC(n3c(C)nc4cnccc43)CC2)c2c(Cl)cccc21` [Example 25], with 10 nM; and `CCOCCn1cc(C(=O)CN2CCC(n3c(C)nc4cnccc43)CC2)c2c(C)cccc21` [Example 28, 1-(2-ethoxyethyl)-4-methyl-3-{[4-(1H-2-methylimidazo[4.5-c]pyrid-1-yl)piperidin-1-yl]acetyl}indole], with 0.5 nM.

Still in this assay, the particulars now being: @ 1.0 μM; rabbit platelet membranes; 0.6 nM [^3 H]C18 -PAF; 60 minutes at room temperature.
As usually defined, the inhibition is the change of the read-out against control, counted positive when it falls. Higher therefore signals strong suppression. `Cc1nc2cnccc2n1C1CCN(S(=O)(=O)c2c[nH]c3cc(-c4ccc(F)cc4)ccc23)CC1` [Example 13, 6-(4-fluorophenyl)-3-{[4-(1H-2-methylimidazo[4.5-c]pyrid-1-yl)piperidin-1-yl]sulfonyl}indole] registered an inhibition at 1 µM of 32%.

Staying with this assay, now noted: rabbit platelet membranes; 0.6 nM [^3 H]C18 -PAF; 60 minutes at room temperature; pH 7.0; Ki by Cheng and Prusoff from IC50.
The compound `CCOCCn1cc(C(=O)N2CCC(Cn3c(C)nc4cnccc43)CC2)c2c(Cl)cccc21` [Example 9, 1-(2-ethoxyethyl)-4-chloro-3-{[4-(1H-2-methylimidazo[4.5-c]pyrid-1-yl)methylpiperidin-1-yl]carbonyl}indole hydrochloride] came in with a Ki of 29 nM.

The same assay, now with this note: rabbit platelet membranes; 0.6 nM [^3 H]C18 -PAF; 60 minutes at room temperature; pH 7.0; Ki by Cheng and Prusoff from IC50; read-out: Ki.
Take `Cc1nc2cnccc2n1C1CCN(C(=O)c2cn(C(=O)N(C)C)c3cc(-c4ccc(F)cc4)ccc23)CC1` [Example 1, 6-(4-fluorophenyl)-3-{[4-(1H-2-methylimidazo[4.5-c]pyrid-1-yl)piperidin-1-yl]carbonyl)indole-1-carboxylic acid dimethyl amide hydrochloride]: the inhibition constant Ki worked out at 3.3 nM. Turning to `Cc1nc2cnccc2n1C1CCN(C(=O)c2c[nH]c3cc(-c4ccc(F)cc4)ccc23)CC1` [Example 2, 6-(4-fluorophenyl)-3-{[4-(1H-2-methylimidazo[4.5-c]pyrid-1-yl)piperidin-1-yl]carbonyl}indole hydrochloride], the Ki came out at 44 nM. Same read-out and setting: the result for `Cc1nc2cnccc2n1C1CCN(C(=O)c2c[nH]c3ccccc23)CC1` [Example 3, 3-{[4-(1H-2-methylimidazo[4,5-c]pyrid-1-yl)piperidin-1-yl]carbonyl}indole hydrochloride] reads 100 nM. With `COC(=O)c1cccc2c1c(C(=O)N1CCC(n3c(C)nc4cnccc43)CC1)cn2C(=O)N(C)C` [Example 4, 3-{[4-(1H-2-methylimidazo[4.5-c]pyrid-1-yl)piperidin-1-yl]carbonyl}indole-1,4-dicarboxylic acid 1-dimethyl amide-4-methyl ester hydrochloride], the inhibition constant (Ki) worked out at 140 nM. Same read-out and setting: the result for `COC(=O)c1cccc2c1c(C(=O)N1CCC(Cn3c(C)nc4cnccc43)CC1)cn2C(=O)N(C)C` [Example 5, 1-N,N-dimethylcarbamoyl-4-methoxycarbonyl-3-{[4-(1H-2-methylimidazo[4.5-c]pyrid-1-yl)methylpiperidin-1-yl]carbonyl}indole-1,4-dicarboxylic acid 1-dimethyl amide-4-methyl ester hydrochloride] reads 74 nM.

As to `Cc1nc2cnccc2n1CC1CCN(C(=O)c2cn(C(=O)N(C)C)c3cc(-c4ccc(F)cc4)ccc23)CC1` [Example 6, 6-(4-fluorophenyl)-3-{[4-(1H-2-methylimidazo[4.5-c]pyrid-1-yl)methylpiperidin-1-yl]carbonyl}indole-1-carboxylic acid dimethyl amide hydrochloride], the Ki came to 2.5 nM.

As for `Cc1nc2cnccc2n1CC1CCN(C(=O)c2cn(C(=O)N(C)C)c3cccc(Cl)c23)CC1` [Example 7, 4-chloro-3-{[4-(1H-2-methylimidazo[4.5-c]pyrid-1-yl)methylpiperidin-1-yl]carbonyl}indole-1-carboxylic acid dimethyl amide hydrochloride], the Ki turned out to be 18 nM. Turning to `COC(=O)c1cccc2c1c(C(=O)N1CCN(CCn3c(C)nc4cnccc43)CC1)cn2C(=O)N(C)C` [Example 10, 3-[{4-[(2-(1H-2-methylimidazo[4.5-c]pyrid-1-yl)ethyl]piperazin-1-yl}carbonyl]indole-1,4-dicarboxylic acid 1-dimethyl amide 4-methyl ester hydrochloride], the Ki is 200 nM. On the same count and under the same terms, then `Cc1nc2cnccc2n1CCN1CCN(C(=O)c2cn(C(=O)N(C)C)c3cc(-c4ccc(F)cc4)ccc23)CC1` [Example 11, 6-(4-fluorophenyl)-3-[{4-[(2-(1H-2-methylimidazo[4.5-c]pyrid-1-yl)ethyl]piperazin-1-yl}carbonyl]indole-1-carboxylic acid dimethyl amide hydrochloride], with 30 nM.

As to `Cc1nc2cnccc2n1C1CCN(S(=O)(=O)c2cn(C(=O)OC(C)(C)C)c3cc(-c4ccc(F)cc4)ccc23)CC1` [Example 12, 6-(4-fluorophenyl)-3-{[4-(1H-2-methylimidazo[4.5-c]pyrid-1-yl)piperidin-1-yl]sulfonyl}indole-1-carboxylic acid t-butyl ester], the inhibitory constant (Ki) was 340 nM. Same read-out and setting: the result for `Cc1nc2cnccc2n1C1CCN(S(=O)(=O)c2cn(C(=O)N(C)C)c3cc(-c4ccc(F)cc4)ccc23)CC1` [Example 14, 6-(4-fluorophenyl)-3-{[4-(1H-2-methylimidazo[4.5-c]pyrid-1-yl)piperidin-1-yl]sulfonyl}indole-1-carboxylic acid dimethyl amide hydrochloride] reads 120 nM. With `Cc1nc2cnccc2n1CC1CCN(S(=O)(=O)c2cn(C(=O)OC(C)(C)C)c3cc(-c4ccc(F)cc4)ccc23)CC1` [Example 15, 6-(4-fluorophenyl)-3-{[4-(1H-2-methylimidazo[4.5-c]pyrid-1-yl)methylpiperidin-1-yl]sulfonyl)indole-1-carboxylic acid t-butyl ester], the Ki is 65 nM.

As to `Cc1nc2cnccc2n1CC1CCN(S(=O)(=O)c2c[nH]c3cc(-c4ccc(F)cc4)ccc23)CC1` [Example 16, 6-(4-fluorophenyl)-3-{[4-(1H-2-methylimidazo[4.5-c]pyrid-1-yl)methylpiperidin-1-yl]sulfonyl}indole], the Ki came to 250 nM. Still for that read-out and setting: then `Cc1nc2cnccc2n1CC1CCN(S(=O)(=O)c2cn(C(=O)N(C)C)c3cc(-c4ccc(F)cc4)ccc23)CC1` [Example 17, 6-(4-fluorophenyl)-3-{[4-(1H-2-methylimidazo[4.5-c]pyrid-1-yl)methylpiperidin-1-yl]sulfonyl}indole-1-carboxylic acid dimethyl amide], with 1.2 nM; and `Cc1nc2cnccc2n1CCN1CCN(S(=O)(=O)c2cn(C(=O)N(C)C)c3cc(-c4ccc(F)cc4)ccc23)CC1` [Example 18], with 110 nM. Take `Cc1nc2cnccc2n1C1CCN(CC(=O)c2c[nH]c3cc(-c4ccc(F)cc4)ccc23)CC1` [Example 19, 6-(4-fluorophenyl)-3-{[4-(1H-2-methylimidazo[4.5-c]pyrid-1-yl)piperidin-1-yl]acetyl}indole]: the Ki stood at 95 nM. For the compound `Cc1nc2cnccc2n1C1CCN(CC(=O)c2cn(C(=O)N(C)C)c3cc(-c4ccc(F)cc4)ccc23)CC1` [Example 20], the Ki worked out at 2.5 nM. As to `COC(=O)c1cccc2[nH]cc(C(=O)CN3CCC(n4c(C)nc5cnccc54)CC3)c12` [Example 21, 3-{[4-(1H-2-methylimidazo[4.5-c]pyrid-1-yl)piperidin-1-yl]acetyl}indole-4-carboxylic acid methy ester], the inhibition constant (Ki) turned out to be 14 nM. On to `COC(=O)c1cccc2c1c(C(=O)CN1CCC(n3c(C)nc4cnccc43)CC1)cn2C(=O)N(C)C` [Example 22, 3-{[4-(1H-2-methylimidazo[4.5-c]pyrid-1-yl)piperidin-1-yl]acetyl}indole-1,4-dicarboxylic acid 1-dimethyl amide 4-methyl ester], for which the Ki was determined as 12 nM. In the case of `Cc1nc2cnccc2n1C1CCN(CC(=O)c2c[nH]c3cccc(Cl)c23)CC1` [Example 24, 4-chloro-3-{[4-(1H-2-methylimidazo[4.5-c]pyrid-1-yl)piperidin-1-yl]acetyl}indole], the Ki turned out to be 30 nM. Turning to `Cc1nc2cnccc2n1C1CCN(CC(=O)c2cn(C(=O)N(C)C)c3cccc(Cl)c23)CC1` [Example 26, 4-chloro-3-{[4-(1H-2-methylimidazo[4.5-c]pyrid-1-yl)piperidin-1-yl]acetyl}indole-1-carboxylic acid dimethyl amide], the inhibition constant (Ki) came out at 12 nM. Still for that read-out and setting: the result for `Cc1cccc2[nH]cc(C(=O)CN3CCC(n4c(C)nc5cnccc54)CC3)c12` [Example 27, 4-methyl-3-{[4-(1H-2-methylimidazo[4.5-c]pyrid-1-yl)piperidin-1-yl]acetyl}indole] reads 71 nM. On the same count and under the same terms, then `Cc1cccc2c1c(C(=O)CN1CCC(n3c(C)nc4cnccc43)CC1)cn2C(=O)N(C)C` [Example 29, 4-methyl-3-{[4-(1H-2-methylimidazo[4.5:c]pyrid-1-yl)piperidin-1-yl]acetyl}indole-1-carboxylic acid dimethyl amide], with 2 nM; and `COC(=O)c1cccc2c1c(C(=O)[C@H]1CC[C@H](Cn3c(C)nc4cnccc43)CC1)cn2C(=O)N(C)C` [Example 30, 3-{[trans-4-[(1H-2-methylimidazo[4.5-c]pyrid-1-yl)methylcyclohex-1-yl]carbonyl}indole-1,4-dicarboxylic acid 1-dimethyl amide 4-methyl ester hydrochloride], with 2.4 nM.
